Results from patent publication US20210315969A1, “GLYCOPROTEINS HAVING LIPID MOBILIZING PROPERTIES AND THERAPEUTIC USES THEREOF” (Aston University, priority 2008, published 2021).

Assays:
adipocytes = assay: Expression of phospho HSL / HSL in adipocytes incubated 3 h with ZAG or isoprenaline; assay type: cell-based, mice
murine myotubes = assay: Protein degradation and synthesis in myotubes subjected to high glucose; assay type: cell-based
Procedure: FIGS. 18A and 18B is a graphical diagram showing phenylalanine release (FIG. 18A) and protein synthesis (FIG. 18B) in C2Cl2 myotubes treated with and without ZAG for 4 h in the presence of various concentrations of glucose. Statistically significant c, P<0.001 from control; f, P<0.001 from glucose alone.
Statistically significant b, P<0.01 and c, P<0.001 from control; e, P<0.05 and f, P<0.001 from glucose alone.
Statistically significant b, P<0.01 and c, P<0.001 from control; e, P<0.05 and f, P<:0.001 from glucose alone; I, P<0.001 from glucose+SR.
This utilizes murine myotubes subjected. to high concentrations of glucose (10 or 25 mM).

epididymal adipocytes = assay: Lipolytic assay (glycerol release) in isolated mouse adipocytes; assay type: cell-based, mice; conditions: any adipocyte group
Procedure: Cell Culture and Purification of ZAG—Single-cell suspensions of white adipocytes were prepared from minced adipose deposits by incubation at 37° C. for […] in Krebs-Ringer biocarbonate buffer containing 1.5 ingml^−1 collagenase, and 4% bovine serum albumin under an atmosphere of 95% oxygen:5% CO2 as previously described. For time-course studies adipocytes were suspended in DMEM containing 10% fetal calf serum at a concentration of 10^5 cells ml^−1 and maintained under an atmosphere of 10% CO2 in air at 37° C. Human 293 cells transfected with a plasmid containing human ZAG were seeded at a concentration of 10^5 cells ml^−1 in FreeStyle medium and maintained under an atmosphere of 5% CO2 in air at 37° C. Maximal protein levels (16 μgml^−1) were obtained after 14 days of culture. […]
Lipolytic Assay—Samples to be assayed were incubated with 10^5 to 2×10^5 adipocytes for 2 h in 1 ml Krebs-Ringer bicarbonate buffer, pH 7.2. The concentration of glycerol released was determined enzymatically by the method of Wieland (Wieland, O. Glycerol UV method. In Methods of Enzymatic Analysis (ed. Bergmeyer, H. U.) (Academic Press, London, UK, pp 1404-1409, 1974)). Control samples containing adipocytes alone were analysed to determine the spontaneous glycerol release. Activity was expressed as nmol glycerol released/10^5 adipocytes/2 h.

COc1cccc(-c2cc(=O)c3ccccc3o2)c1N [PD98059]
effect on ZAG-induced expression of HSL in ep adipocytes (adipocytes; PD98059 10 μM, adipocytes incubated with ZAG for 3 h): attenuated the increase in expression of HSL

CCc1ccccc1OC[C@@H](O)CN[C@H]1CCCc2ccccc21 [SR59230A]
combination of ZAG and SR59230A on glucose induced protein degradation (murine myotubes; 10 and 25 mM glucose): additive rather than antagonistic | protein degradation induced by 10 and 25 mM glucose (murine myotubes; myotubes): attenuated | protein synthesis (murine myotubes; with 10 mM glucose): causes an increase in the depression of protein synthesis

CC(C)NCC(O)c1ccc(O)c(O)c1 (stereo not drawn) [isoprenaline]
expression of phospho HSL in adipocytes (adipocytes; 3 h, isoprenaline 10 μM or ZAG 0.46 μM): not | extent of stimulation of lipolysis, isoprenaline versus ZAG (epididymal adipocytes): no significant difference
